Source: the supplement of paper PMC11208160

Experiment: recombinant UMI read abundance after kanamycin selection (control-corrected) (log10(CPM+1)); higher = more efficient recombination; extreme values may be limits of the assay; sequences stand for … in AGTGCAGAGAAAATCGGCCAGTTTTCTCTGCCTGCAGTCCGCATGCCGTGGGACCCCTTGGGTTCTAACCTGTTGCCTAGATTTATGCAGCGGACTGCCTTTCTCCCAAAGTGATAAACCGG…AGGTTGGTTTCACT; site = the 11-nt donor
Method in brief: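 Under IPTG (0.07 mM) plus kanamycin, or without selection, Escherichia coli carrying a UMI-tagged donor and donor-binding-loop pair library and a target plasmid for the IS621 bridge recombinase were plated in two replicates. Recombinant UMIs were PCR-amplified across the donor–target junction and sequenced. Counts were converted to CPM, averaged over replicates, scaled by control-derived factors and reported as log10(CPM+1).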
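Further: IS621 bridge recombinase in Escherichia coli cells against a fixed T5 target plasmid.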

Point of comparison: “CGATGCTCATGGACCGGTTTTCCCGGTAATCCGTATTTGAA (site CGATGCTCTTT)”, “recombinant UMI read abundance (log10)” value 2.6. Against it:
- CGATAATCATGGACCGGTTTTCCCGGTAATCCGTATTTGCT (site CGATTATCTAG) — lower, 0.415
- CGATAGACATGGACCGGTTTTCCCGGTAATCCGTATTTGAG (site CGATAGACTCT) — lower, 2.32
- CGATAGACATGGACCGGTTTTCCCGGTAATCCGTATTTGAG (site CGCTAGACTCT) — lower, 0.00552
- CGATAGACATGGACCGGTTTTCCCGGTAATCCGTATTTGAG (site CGGTAGACTCT) — lower, 0.902
- CGATAGACATGGACCGGTTTTCCCGGTAATCCGTATTTGAG (site CGTTAGACTCT) — lower, 0.979
- CGATAGACATGGACCGGTTTTCCCGGTAATCCGTATTTGTT (site CGATAGACTAA) — lower, 2
- CGATAGACATGGACCGGTTTTCCCGGTAATCCGTATTTGTT (site CGATCGACTAA) — lower, 0.04
- CGATAGACATGGACCGGTTTTCCCGGTAATCCGTATTTGTT (site CGATGGACTAA) — lower, 0.0144
- CGATAGACATGGACCGGTTTTCCCGGTAATCCGTATTTGTT (site CGATTGACTAA) — lower, 0.00602
- CGATCAACATGGACCGGTTTTCCCGGTAATCCGTATTTGCT (site CGATCAACTAG) — lower, 2.27
- CGATCAACATGGACCGGTTTTCCCGGTAATCCGTATTTGCT (site CGATCACCTAG) — lower, 0
- CGATCAACATGGACCGGTTTTCCCGGTAATCCGTATTTGCT (site CGATCAGCTAG) — lower, 0
- CGATCAACATGGACCGGTTTTCCCGGTAATCCGTATTTGCT (site CGATCATCTAG) — lower, 0
- CGATCATCATGGACCGGTTTTCCCGGTAATCCGTATTTGAT (site CGATCATCTAA) — lower, 0
- CGATCATCATGGACCGGTTTTCCCGGTAATCCGTATTTGAT (site CGATCATCTAC) — lower, 0.213
- CGATCATCATGGACCGGTTTTCCCGGTAATCCGTATTTGAT (site CGATCATCTAG) — lower, 0
- CGATCATCATGGACCGGTTTTCCCGGTAATCCGTATTTGAT (site CGATCATCTAT) — lower, 0.727
- CGATCATCATGGACCGGTTTTCCCGGTAATCCGTATTTGCC (site CGATCATCTAG) — lower, 0
- CGATCATCATGGACCGGTTTTCCCGGTAATCCGTATTTGCC (site CGATCATCTCG) — lower, 0.00333
- CGATCATCATGGACCGGTTTTCCCGGTAATCCGTATTTGCC (site CGATCATCTGG) — lower, 0
- CGATCATCATGGACCGGTTTTCCCGGTAATCCGTATTTGCC (site CGATCATCTTG) — lower, 0
- CGATCATCATGGACCGGTTTTCCCGGTAATCCGTATTTGCG (site CGATCATCTAG) — lower, 0
- CGATCATCATGGACCGGTTTTCCCGGTAATCCGTATTTGCG (site CGATCATCTCG) — lower, 2.32
- CGATCATCATGGACCGGTTTTCCCGGTAATCCGTATTTGCG (site CGATCATCTGG) — lower, 0
- CGATCATCATGGACCGGTTTTCCCGGTAATCCGTATTTGCG (site CGATCATCTTG) — lower, 0.00387
- CGATCCCCATGGACCGGTTTTCCCGGTAATCCGTATTTGGG (site CGATCCCCTCC) — lower, 0.00829
- CGATCCTCATGGACCGGTTTTCCCGGTAATCCGTATTTGGT (site CGATCATCTAG) — lower, 0
- CGATCCTCATGGACCGGTTTTCCCGGTAATCCGTATTTGGT (site CGATCCTCTAC) — lower, 1.74
- CGATCGACATGGACCGGTTTTCCCGGTAATCCGTATTTGGT (site CGATCGACTAA) — lower, 0.276
- CGATCGACATGGACCGGTTTTCCCGGTAATCCGTATTTGGT (site CGATCGACTAC) — lower, 0.733
- CGATCGACATGGACCGGTTTTCCCGGTAATCCGTATTTGGT (site CGATCGACTAG) — lower, 0
- CGATCGACATGGACCGGTTTTCCCGGTAATCCGTATTTGGT (site CGATCGACTAT) — lower, 1.46
- CGATCGACATGGACCGGTTTTCCCGGTAATCCGTATTTGTA (site CGATCGACTAA) — lower, 0
- CGATCGACATGGACCGGTTTTCCCGGTAATCCGTATTTGTA (site CGATCGACTCA) — lower, 0.0107
- CGATCGACATGGACCGGTTTTCCCGGTAATCCGTATTTGTA (site CGATCGACTGA) — lower, 0
- CGATCGACATGGACCGGTTTTCCCGGTAATCCGTATTTGTA (site CGATCGACTTA) — lower, 1.19
- CGATCGTCATGGACCGGTTTTCCCGGTAATCCGTATTTGAT (site CGATCATCTAG) — lower, 0.00648
- CGATCGTCATGGACCGGTTTTCCCGGTAATCCGTATTTGAT (site CGATCGTCTAT) — lower, 0.972
- CGATGATCATGGACCGGTTTTCCCGGTAATCCGTATTTGAG (site CGATGATCTCT) — higher, 3.16
- CGATGATCATGGACCGGTTTTCCCGGTAATCCGTATTTGCC (site CGATCATCTAG) — lower, 0
- CGATGATCATGGACCGGTTTTCCCGGTAATCCGTATTTGCC (site CGATGATCTGG) — lower, 2
- CGATGCGCATGGACCGGTTTTCCCGGTAATCCGTATTTGAT (site CGATGCGCTAT) — within 0.2 log units, 2.43
- CGATGCTCATGGACCGGTTTTCCCGGTAATCCGTATTTGAA (site CAATGCTCTTT) — lower, 0.249
- CGATGCTCATGGACCGGTTTTCCCGGTAATCCGTATTTGAA (site CCATGCTCTTT) — lower, 0.00345
- CGATGCTCATGGACCGGTTTTCCCGGTAATCCGTATTTGAA (site CTATGCTCTTT) — lower, 0.0185
- CGATGTCCATGGACCGGTTTTCCCGGTAATCCGTATTTGGA (site CGATGTCCTTC) — lower, 0.0178
- CGATTCGCATGGACCGGTTTTCCCGGTAATCCGTATTTGCT (site CGATTCGCTAG) — lower, 2.12
- CGATTGACATGGACCGGTTTTCCCGGTAATCCGTATTTGTT (site CGATAGACTAA) — lower, 0.0285
- CGATTGACATGGACCGGTTTTCCCGGTAATCCGTATTTGTT (site CGATCGACTAA) — lower, 0.016
- CGATTGACATGGACCGGTTTTCCCGGTAATCCGTATTTGTT (site CGATGGACTAA) — lower, 0.00746
- CGATTGACATGGACCGGTTTTCCCGGTAATCCGTATTTGTT (site CGATTGACTAA) — lower, 1.24
- CGATTTTCATGGACCGGTTTTCCCGGTAATCCGTATTTGCT (site CGATCATCTAG) — lower, 0
- CGATTTTCATGGACCGGTTTTCCCGGTAATCCGTATTTGCT (site CGATTTTCTAG) — lower, 1.29
- CGCAAGACATGGACCGGTTTTCCCGGTAATCCGTATTTGCA (site CGCAAGACTTG) — lower, 1.79
- CGCAATACATGGACCGGTTTTCCCGGTAATCCGTATTTGGT (site CGCAATACTAC) — lower, 1.25
- CGCAATCCATGGACCGGTTTTCCCGGTAATCCGTATTTGTT (site CGAAATCCTAA) — lower, 0.00301
- CGCAATCCATGGACCGGTTTTCCCGGTAATCCGTATTTGTT (site CGCAATCCTAA) — lower, 0.698
- CGCAATCCATGGACCGGTTTTCCCGGTAATCCGTATTTGTT (site CGGAATCCTAA) — lower, 0
- CGCAATCCATGGACCGGTTTTCCCGGTAATCCGTATTTGTT (site CGTAATCCTAA) — lower, 0
- CGCACCCCATGGACCGGTTTTCCCGGTAATCCGTATTTGAC (site CGCACCCCTGT) — lower, 1.43
- CGCACGACATGGACCGGTTTTCCCGGTAATCCGTATTTGCC (site CGCACGACTGG) — lower, 1.95
- CGCAGAACATGGACCGGTTTTCCCGGTAATCCGTATTTGCA (site CGCAGAACTTG) — lower, 1.37
- CGCAGAACATGGACCGGTTTTCCCGGTAATCCGTATTTGTA (site CGCAGAACTTA) — lower, 2.19
- CGCATCCCATGGACCGGTTTTCCCGGTAATCCGTATTTGGC (site CGCATCCCTGC) — lower, 1.75
- CGCATTTCATGGACCGGTTTTCCCGGTAATCCGTATTTGCC (site CGCATTTCTGG) — lower, 0
- CGCCACCCATGGACCGGTTTTCCCGGTAATCCGTATTTGTT (site AGCCACCCTAA) — lower, 0.00879
- CGCCACCCATGGACCGGTTTTCCCGGTAATCCGTATTTGTT (site CGCCACCCTAA) — lower, 0.0407
- CGCCACCCATGGACCGGTTTTCCCGGTAATCCGTATTTGTT (site GGCCACCCTAA) — lower, 0.0241
- CGCCACCCATGGACCGGTTTTCCCGGTAATCCGTATTTGTT (site TGCCACCCTAA) — lower, 0.00618
- CGCCAGACATGGACCGGTTTTCCCGGTAATCCGTATTTGCC (site CGCCAGACTGG) — lower, 1.38
- CGCCATCCATGGACCGGTTTTCCCGGTAATCCGTATTTGTT (site CGCCATCCTAA) — lower, 0.44
- CGCCATCCATGGACCGGTTTTCCCGGTAATCCGTATTTGTT (site CGGAATCCTAA) — lower, 0
- CGCCATGCATGGACCGGTTTTCCCGGTAATCCGTATTTGAC (site CGCCATGCTGT) — lower, 1.6
- CGCCGTACATGGACCGGTTTTCCCGGTAATCCGTATTTGCA (site CGCCGTACTAG) — lower, 0.00535
